Experimental data published in patent US5817689A, “Indole derivatives having a 2-phenyl-ethanolamino-substituted lower alkyl group at the 2-or 3-position thereof” (priority 1994, dated 1998).

Assays:
[1] = system: glucose level in the blood; test: Blood glucose reducing activity on fasted mouse; type: in vivo, ddY male mouse; details: po, 3 h, read-out: Blood glucose reducing activity (ED25)
Experimental: Experiment 2 Blood glucose reducing activity on fasted mouse:
A test compound suspended in 0.5% tragacanth solution was orally administered to a ddY male mouse (weight: 20-30 g) under being fasted, and the blood was collected before and at three hours after the administration of the test compound. The glucose level in the blood was determined by the method of Kunst A., et al. (Hexokinase/G6PDH method) [Bergmeyer, H. U. (eds.), […], vol. VI, 3rd edition, Verlag Chemie GmbH, Weinheim·Deerfield Beach, Florida·Basel, 163-172 (1984)]. The blood glucose reducing activity of the test compound was expressed by ED25 value which is a concentration of the test compound required to reduce the glucose level in blood before the administration of the test compound by 25%. Gliclazide was used as a reference compound which is a commercially available drug for treatment of diabetes mellitus.

[2] = biological target: T1, human β2 -adrenergic receptor (Homo sapiens, UniProt P07550); test: Human β2-adrenergic receptor-stimulating activity (cAMP accumulation in CHO/pKREX21-8 cells); type: cell-based
T1 construct: expressed in transfected cells; host or cells: CHO-K1, clone CHO/pKREX21-8
Excerpt: cDNA was synthesized with Poly(A)^+ RNA derived from human brain (Clontech: trade number; CL6516-1) by using SuperScript Systems (Life Technologies).
After the reaction mixture was digested with restriction endonucleases Sse8387I and HindIII, about 1.4 kbp fragment was isolated by electrophoresis. This fragment was ligated with expression vector pKCN1 digested with restriction endonucleases Sse8387I and HindIII, and was introduced into E. coli HB101 in a conventional manner. Plasmid DNA was prepared from the selected transformant, and the nucleotide sequence of the about 1.4 kbp fragment obtained by digestion of this plasmid DNA with restriction endonucleases Sse8387I and HindIII was determined. […] This plasmid was named as pKREX21 for highly expressing human β2 -adrenergic receptor, and was introduced into CHO-K1 in the same manner as the method of establishment of the cell line highly expressing human β3 -adrenergic receptor.
(§1) Experiment 1 Human β-adrenergic receptor-stimulating activity:
(§2) The cells were peeled off by incubation with phosphate-buffered saline containing 0.5 mM EDTA at 37° C. for 10 minutes after the medium was removed. The CHO/pKREX10-36 cells were collected by centrifugation, and suspended in Hanks' balanced salts (ICN Biomedicals) containing 1 mM L-ascorbic acid and 1 mM 3-isobutyl-1-methylxanthine at the concentration of about 2×10^6cells/ml. This suspension (100μl) and a test compound were mixed in the same balanced salt (500 μl) and incubated at 37° C. for 30 minutes, followed by boiling for 5 minutes to terminate the reaction. After centrifugation of the reaction mixture, the amount of cAMP in the supernatant was measured by using cAMP EIA System (Amersham).
Similarly, the amount of cAMP was measured by using CHO/pKREX21-8 for highly expressing human β2 -adrenergic receptor instead of the CHO/pKREX10-36 for highly expressing human β3 -adrenergic receptor.

[3] = biological target: T2, human β3 -adrenergic receptor (Homo sapiens, UniProt P13945); test: Human β3-adrenergic receptor-stimulating activity (cAMP accumulation in CHO/pKREX10-36 cells); type: cell-based
T2 construct: expressed in transfected cells; host or cells: CHO-K1 (ATCC CCL 61), clone CHO/pKREX10-36
Experimental: Establishment of the cell line highly expressing human β3 -adrenergic receptor
Separately, another expression vector for animal cells, pSV2-neo [Southern and Berg, J. Mol. Appl. Genet. […] These DNAs were ligated with DNA Ligation Kit (Takara Shuzo Co., Ltd.) and were introduced into E. coli HB101 in a conventional manner to give the transformants. Plasmid DNAs were prepared from the transformants and digested with a restriction endonuclease PstI. A clone which produced about 3.8 kbp, 2.2 kbp, 1.4 kbp, and 0.9 kbp fragments was selected to give a plasmid named pKCN0.
The reaction mixture was used for transformation of E. coli HB101 and plasmid DNAs were prepared from the selected transformants. The plasmid DNAs were digested with restriction endonucleases DraI and HindIII, and a clone which produced about 430 bp fragment was selected to give a plasmid named pKCN1 for expression vector.
10% Dimethyl sulfoxide was added to the reaction mixture at the PCR reaction.
After the reaction mixture was digested with restriction endonucleases Sse8387I and StuI, about 1.3 kbp fragment was isolated by electrophoresis. This fragment was ligated with expression vector pKCN1 which was digested with restriction endonucleases Sse8387I and EcoRV, and the resultant was introduced into E. coli HB101 in a conventional manner. Plasmid DNA was prepared from the selected transformant and the nucleotide sequence of the about 1.3 kbp fragment obtained by digestion of the plasmid DNA with restriction endonucleases Sse8387I and XhoI was determined. […] This plasmid for expressing human β3 -adrenergic receptor was named as pKREX10.
The reaction mixture was filtered with glass filter GF/C (Whatman) presoaked with 0.3% polyethyleneimine and washed by using BIO-DOT apparatus (Bio-Rad Laboratories), and the radioactivity on the filter was counted by γ-ray counter. […] Establishment of the cell line highly expressing human β2 -adrenergic receptor
as §1, §2

[4] = Acute toxicity experiment using mice; type: in vivo; details: oral administration at a dose of 300 mg/kg
Excerpt: Thus, when taking into consideration the therapeutically effective dose, the compounds of the present invention have no problem in safety to living body.

T1 sequence (P07550 whole entry): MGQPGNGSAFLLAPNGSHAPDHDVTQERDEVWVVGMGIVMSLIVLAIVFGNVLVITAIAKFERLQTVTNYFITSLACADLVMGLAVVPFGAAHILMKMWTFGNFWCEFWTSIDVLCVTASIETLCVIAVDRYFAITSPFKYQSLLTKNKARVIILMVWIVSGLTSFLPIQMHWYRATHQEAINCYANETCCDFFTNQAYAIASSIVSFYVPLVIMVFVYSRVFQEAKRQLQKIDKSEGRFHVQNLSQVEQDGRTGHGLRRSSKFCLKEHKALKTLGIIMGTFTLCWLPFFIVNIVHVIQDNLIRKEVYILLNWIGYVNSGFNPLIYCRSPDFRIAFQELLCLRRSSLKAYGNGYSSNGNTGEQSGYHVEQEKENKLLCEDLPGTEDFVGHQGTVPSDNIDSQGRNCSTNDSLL
T2 sequence (P13945 whole entry): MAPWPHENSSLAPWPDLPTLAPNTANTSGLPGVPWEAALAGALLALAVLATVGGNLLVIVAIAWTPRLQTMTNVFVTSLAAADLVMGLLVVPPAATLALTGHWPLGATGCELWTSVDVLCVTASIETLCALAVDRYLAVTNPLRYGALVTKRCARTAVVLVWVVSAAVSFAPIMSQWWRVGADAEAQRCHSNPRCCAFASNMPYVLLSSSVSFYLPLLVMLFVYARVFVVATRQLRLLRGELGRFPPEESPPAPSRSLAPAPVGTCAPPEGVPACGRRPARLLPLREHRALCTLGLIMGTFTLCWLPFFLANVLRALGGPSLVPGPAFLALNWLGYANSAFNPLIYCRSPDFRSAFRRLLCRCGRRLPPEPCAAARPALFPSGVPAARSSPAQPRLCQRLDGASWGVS

COc1cccc2c(CC(C)NC[C@H](O)c3cccc(Cl)c3)c[nH]c12 (stereo partly drawn) [Example 1-A, 2-[3-(7-methoxyindol-3-yl)-2-propylamino]-(1R)-1-(3-chlorophenyl)ethanol]
ED25 [1]: 3 µg/kg | EC50 [2]: 13 nM | Emax ([2]; read-out: I.A. value β2 -receptor): 36% | EC50 ([3]; 50% of cAMP accumulation, CHO/pKREX10-36, 37° C., 30 minutes, read-out: EC50 value β3 -receptor): 0.67 nM | Emax ([3]; read-out: I.A. value β3 -receptor): 114% | acute toxicity [4]: no toxicity at all
